Test results published in PMC4865845, “A human genome-wide loss-of-function screen identifies effective chikungunya antiviral drugs” (Nature Communications, 2016).

These substances were tested on CHIKV.
Type: cell-based, chikungunya virus
“Hs_RRBP1_1 (sense CACGTAGAGGATGGTGACATA; chemistry not given here)” was tested, and the Score_si2 was 1.82. “Hs_RRBP1_3 (sense CTGGCTGCAGGTGAAAGGAAA; chemistry not given here)” gave a Score_si4 of 1.53. With “Hs_RRBP1_4 (sense AAGAGATTGTAGAGAAGCTAA; chemistry not given here)” the Score_si3 was 1.79. Work on “Hs_RTN2_1 (sense TTGGATTTACACTGTAATAAA; chemistry not given here)” yielded a Score_si4 of 0.49. “Hs_RTN2_2 (sense GAGCTTGGATTTACACTGTAA; chemistry not given here)” was tested, and the Score_si1 was 2.8. “Hs_RXRA_1 (sense TTCGTGTAAGCAAGTACATAA; chemistry not given here)” was tested, and the Score_si1 was 2.2. “Hs_RXRA_3 (sense TCCGTACGATTGTCTCTGAAA; chemistry not given here)” gave a Score_si4 of 0.81. Substance “Hs_RXRA_4 (sense CTCATCGGCCTTGTAGTTGTA; chemistry not given here)” has a Score_si2 of 1.74. For “Hs_SAFB_1 (sense ACGGACTGTAGTAATGGATAA; chemistry not given here)”, the Score_si3 was 0.86. “Hs_SAFB_2 (sense AAGGTGGTAATCCTGACGAAA; chemistry not given here)” was tested, and the Score_si2 was 0.95. “Hs_SAFB_3 (sense CTGCCATATTGTAGCTCAATA; chemistry not given here)” showed a Score_si1 of 1.4. “Hs_SARS_2 (sense CTGATGAAACCATGTAATAAA; chemistry not given here)” was tested, and the Score_si1 was 2.9. For “Hs_SCLY_1 (sense CTGACTCAGCTTATACCTTAA; chemistry not given here)”, the Score_si3 was 1.21. With “Hs_SCLY_2 (sense CAGAAACTAAATTAACGAATA; chemistry not given here)” the Score_si4 was 1.04. With “Hs_SDFR1_8 (sense CAGGTATATACAGCATATAAA; chemistry not given here) [reference compound]” the Score_si1 was -2.41. In the case of “Hs_SDFR1_9 (sense CTGGTACATAAAGATGAGTAA; chemistry not given here) [reference compound]”, the Score_si3 is reported as -1.41. “Hs_SDFR1_10 (sense ACAGGTATATACAGCATATAA; chemistry not given here) [reference compound]” gave a Score_si2 of -2.32. “Hs_SDFR1_11 (sense TACATAAAGATGAGTAATATA; chemistry not given here) [reference compound]” was tested, and the Score_si4 was -1.37. “Hs_SEC61B_1 (sense TTTAATTCACTTATACTGAAA; chemistry not given here)” was tested, and the Score_si1 was 1.55. Work on “Hs_SEC61B_2 (sense CCCAACATTTCTTGGACCAAA; chemistry not given here)” yielded a Score_si3 of 1.09. “Hs_SHC2_10 (sense GCGGTTTGTCCTACAAGTTTA; chemistry not given here)” gave a Score_si4 of 0.47. “Hs_SHC2_11 (sense TCGGTGCTGGTGGAACAGAAA; chemistry not given here)” was tested, and the Score_si1 was 2.36. “Hs_SIMP_1 (sense CAGGGAGACATTAGATCACAA; chemistry not given here) [reference compound]” was tested, and the Score_si4 was -0.7. “Hs_SIMP_2 (sense CTGGCTTGTTAGGATATATAA; chemistry not given here) [reference compound]” was tested, and the Score_si1 was -2.63. Substance “Hs_SIN3A_5 (sense GAGCGTGTAAGCAAGCGTCTA; chemistry not given here)” has a Score_si1 of 2.49. “Hs_SLC6A19_2 (sense CTCGGTGATTGTGTCCATCAT; chemistry not given here)” gave a Score_si1 of 2.5. With “Hs_SLC6A19_4 (sense CCAGAAGATCTCCTACCCGAA; chemistry not given here)” the Score_si2 was 0.84. Substance “Hs_SREBF2_1 (sense ACCCATAATATCATTGAGAAA; chemistry not given here)” has a Score_si4 of 1.37. “Hs_SREBF2_3 (sense CTGCAATTTGTCAGTAATCAA; chemistry not given here)” showed a Score_si1 of 2.21. Work on “Hs_SREBF2_4 (sense AAGGCCATTGATTACATCAAA; chemistry not given here)” yielded a Score_si3 of 1.41. For “Hs_SSP411_1 (sense ATGGCCTTGCATACCCTGAAA; chemistry not given here)”, the Score_si1 was 2.33. Work on “Hs_SULF1_1 (sense TCCGTCGAATTTGAAGGTGAA; chemistry not given here) [reference compound]” yielded a Score_si1 of -2.1. Substance “Hs_SULF1_3 (sense CTGGTGTTTGCGTACAGTTAA; chemistry not given here) [reference compound]” has a Score_si4 of -0.77. Substance “Hs_SULF1_4 (sense AGCATGGATTTGATTATGCAA; chemistry not given here) [reference compound]” has a Score_si2 of -1.41. “Hs_SYMPK_1 (sense CAGGAGCTGATCATCAACAAA; chemistry not given here)” gave a Score_si3 of 1.54. Work on “Hs_SYMPK_2 (sense CAGCCTGGTGACACAGTTCAA; chemistry not given here)” yielded a Score_si2 of 1.86. “Hs_TADA3L_1 (sense CTGACCGAACTGGACACTAAA; chemistry not given here) [reference compound]” gave a Score_si2 of -1.72. “Hs_TADA3L_2 (sense ACCGACTGGCAGGATAAGAAA; chemistry not given here) [reference compound]” was tested, and the Score_si1 was -1.99. Substance “Hs_TAZ_2 (sense CCGCCACATCTGGAACCTGAA; chemistry not given here)” has a Score_si1 of 2.45. “Hs_TGIF_1 (sense TACCCAGAGGACACTTGTAAA; chemistry not given here)” showed a Score_si1 of 1.41. “Hs_TGIF_4 (sense TACCACTGTGACTGCATTGAA; chemistry not given here)” showed a Score_si4 of 0.65. Work on “Hs_TGIF_6 (sense TCCAAGAACTATAAACTTAAA; chemistry not given here)” yielded a Score_si3 of 1. “Hs_THRAP6_1 (sense ATGAAAGATTATTGTAATAAA; chemistry not given here) [reference compound]” gave a Score_si2 of -1.47. “Hs_THRAP6_6 (sense CTGAGATTGGTATATGACAAA; chemistry not given here) [reference compound]” was tested, and the Score_si1 was -1.48. “Hs_TMPIT_1 (sense CTGGTGGGTGTTCCATCACTA; chemistry not given here)” gave a Score_si1 of 2.87. In the case of “Hs_TOR2A_2 (CACGGGTGGCGAGCAGATCAA; chemistry not given here)”, the Score_si1 is reported as 2.35. “Hs_TRAF2_2 (CAGAGTTATTAAACCATTCAA; chemistry not given here) [reference compound]” gave a Score_si2 of -0.92. “Hs_TRAF2_4 (CTGGACCAAGACAAGATTGAA; chemistry not given here) [reference compound]” was tested, and the Score_si1 was -1.15. “Hs_TRAF2_5 (CACGAGGGCATATATGAAGAA; chemistry not given here) [reference compound]” was tested, and the Score_si4 was -0.76. “Hs_TREX2_1 (CACAATGGCTTTGATTATGAT; chemistry not given here) [reference compound]” was tested, and the Score_si1 was -2.42. With “Hs_TRRAP_1 (AAGATTCGACAGCAAGTTAAA; chemistry not given here)” the Score_si4 was 1.01. Substance “Hs_TUSC1_1 (TCCCTGTACATCTAATATATA; chemistry not given here) [reference compound]” has a Score_si1 of -1.75. In the case of “Hs_TUSC1_2 (ACCGATCATTCTATTATCATT; chemistry not given here) [reference compound]”, the Score_si2 is reported as -1.18. Substance “Hs_U2AF2_3 (TAAGACGAATTTGCTCATTAA; chemistry not given here)” has a Score_si1 of 2.74. “Hs_UBE2C_3 (GCCCTTGTATATTAAATAAAT; chemistry not given here) [reference compound]” gave a Score_si4 of -0.41. Substance “Hs_UBE2C_4 (CAGGACCATTCTGCTCTCCAT; chemistry not given here) [reference compound]” has a Score_si3 of -0.75. In the case of “Hs_UBE2C_8 (GAGCCCTTGTATATTAAATAA; chemistry not given here) [reference compound]”, the Score_si1 is reported as -1.05. Work on “Hs_UBE2C_9 (AGCCCTTGTATATTAAATAAA; chemistry not given here) [reference compound]” yielded a Score_si2 of -0.83. “Hs_UIP1_3 (CTCGAGGGTCTGTATATCACA; chemistry not given here) [reference compound]” gave a Score_si4 of 0.1. In the case of “Hs_ULK2_6 (CAGCCTGAGATACGTGCCTTA; chemistry not given here) [reference compound]”, the Score_si1 is reported as -2.62. Substance “Hs_UMPS_1 (CACCGCATTGATACTATAATA; chemistry not given here)” has a Score_si4 of 1.35. “Hs_UMPS_2 (CAGGAGAAACCTGTTTAATCA; chemistry not given here)” gave a Score_si1 of 3.14. Substance “Hs_UMPS_4 (AAGCTTCTCAGGCTTATGCAA; chemistry not given here)” has a Score_si3 of 1.59. “Hs_UQCRFS1_1 (CAGCATGATCTAGATCGAGTA; chemistry not given here)” showed a Score_si1 of 3.18. “Hs_UQCRFS1_2 (CAAACATTAATGTGAAATAAA; chemistry not given here)” gave a Score_si4 of 0.3. “Hs_WDR40A_1 (CAGCATCAATGTGATTAGTAA; chemistry not given here) [reference compound]” was tested, and the Score_si1 was -2.68. “Hs_WDR40A_2 (AACACTGATAATAGGAAGTAA; chemistry not given here) [reference compound]” was tested, and the Score_si4 was -0.22. In the case of “Hs_WIG1_1 (CAGCATTTAGAGAGCAAGCAA; chemistry not given here)”, the Score_si1 is reported as 2.55. Work on “Hs_WIG1_2 (CAGGCTCATTATCAGGGTAAA; chemistry not given here)” yielded a Score_si4 of -0.33. “Hs_XRN1_1 (CAGGTCGTAAATATCAAATAA; chemistry not given here)” showed a Score_si3 of 1.08. Substance “Hs_XRN1_2 (AAGGAAATAGATAAACTGTAA; chemistry not given here)” has a Score_si1 of 1.94. With “Hs_YEATS4_1 (AAGGGTGTTACTATCGTTAAA; chemistry not given here)” the Score_si1 was 1.23. For “Hs_YEATS4_2 (TTGGTAGTAAGCTAAACTGAA; chemistry not given here)”, the Score_si2 was 1.07. For “Hs_YEATS4_3 (AAAGGGTGTTACTATCGTTAA; chemistry not given here)”, the Score_si3 was 0.92. For “Hs_ZA20D1_1 (AAGGAGGTTCTCAGTCAATAA; chemistry not given here)”, the Score_si2 was 1.25.
